Laboratory results from patent US12257264B2, “Combination therapy for HIV with adenosine derivative and capsid inhibitors” (Brii Biosciences, Inc., priority 2021, dated 2025).
Where “and” joins values, the source holds several entries; their conditions need not be identical. Equal values may be shown once.

Assay: Plasma exposures following IV infusion alone or in combination to Sprague-Dawley rats
Settings: for Lenacapavir Concentrations in Rat Plasma When Dosed with Prodrug formula 4-A: Lenacapavir IV infusion 1.0 mg/kg with Prodrug formula 4-A
Description: The pharmacokinetics of EFdA and prodrug formula 4-A, as well as lenacapavir were studied in rats after IV infusion administration alone or in combination at a dose of 1.0 mg/kg each.
Formulations: The prodrugs and lenacapavir were formulated alone or in combination as solutions at 1.0 mg/mL each in 20% […], 10% Solutol aqueous solution within 0.5 hour prior to dose.
Dose Administration and Sample Collection: The in-life phase of this study was conducted at the WuXi Apptec (WuXi) at Shanghai, China in accordance with the WuXi Institutional Animal Care and Use Committee (IACUC) standard animal procedures along with the IACUC guidelines that are in compliance with the Animal Welfare Act, the Guide for the Care and Use of Laboratory Animals. and was approved by the IACUA Committee. Male Sprague-Dawley rats (0.262+/−0.019 kg) were used for the studies. Each drug was administered as a single dose by 30-min IV infusion (1 ml/kg) alone or in combination. Plasma samples were collected at 0 (pre-dose), 5, 10, 15 and 30 min, 1, 2, 4, 7, 12 and 24 h post-dose. Blood (approximately 0.1 mL) was processed immediately for plasma by centrifugation at 3,200 g at 4° C. for 10 min within half an hour of collection. Plasma samples were frozen and maintained at −70° C. until analyzed. To stabilize the prodrug at the sample collection and subsequent analysis, the following stabilizing reagents were added to the blood collection K2EDTA tubes on wet ice prior to sample collection: for each 100 mL of blood, 10 mL of premade inhibitor cocktail consists of 600 mM Citric Acid, 400 mM PMSF, 400 mM NaF, and 400 mM Dichlorvos.
Determination of EFdA and Prodrugs in plasma: Briefly, plasma (20 μL) was mixed with 100 l acetonitrile to precipitate protein. Consistent with sample collection procedure, the same cocktail protocol was also added to stabilize the prodrug in the standard and QC samples.
Bioanalysis: A Sciex API-6500 Plus triplequadrupole mass spectrometer coupled with a Waters Acquity UPLC system (Framingham, MA 01701) was used for quantitative analysis of plasma samples. The column was a Waters HSS T3 column (2.1×50 mm, 1.8 micrometer). The mobile phases used were: A, 0.1% formic acid in water; B, 0.1% formic acid in acetonitrile. For the analysis of EFdA and prodrugs in plasma, the flow rate was 0.6 mL/min with a total run time of 2.0 min. […] Detection of the prodrug and EFdA were achieved using positive ion electrospray mass spectroscopic mode using unit resolution mode. Multiple reaction monitoring (MRM) modes were used to quantify both prodrug and EFdA, e.g. the MRM transition for EFdA was 294.0-154.2 Da, and the transition for prodrug 4-A was 449.3-164.9 Da. For the analysis of lenacapavir in plasma, the flow rate was 0.7 mL/min with a total run time of 1.5 min. The HPLC gradient was initiated at 95% A/5% B for 0.50 min, followed by linear gradient increase to […] over the next 0.2 min; the gradient was subsequently maintained at 100% of mobile B over the next 0.7 min before ramping down to 95% mobile phase A within the following 0.1 min. Detection of lenacapavir was achieved using positive ion electrospray mass spectroscopic mode using unit resolution mode. Multiple reaction monitoring (MRM) modes were used to quantify lenacapavir, e.g. the MRM transition for lenacapavir was 968.1-869.4 Da. Peak areas were integrated by the Sciex program Analyst®, version 1.6.3, operating on a Windows 7 computer where concentrations were determined by a weighted (1/x2) linear regression of peak area ratios (peak area of EFdA/peak area of corresponding IS) versus the nominal concentrations of the plasma calibration standards. Calculations were performed on unrounded numbers. Overall, Analyst® determined the precision and accuracy for the calibration standards and QC samples.

Compound: CC(C)(C#Cc1ccc(-c2ccc(Cl)c3c(NS(C)(=O)=O)nn(CC(F)(F)F)c23)c([C@H](Cc2cc(F)cc(F)c2)NC(=O)Cn2nc(C(F)(F)F)c3c2C(F)(F)[C@@H]2C[C@H]32)n1)S(C)(=O)=O [Lenacapavir, reference compound]
- Lenacapavir Concentrations in Rat Plasma When Dosed Alone (Lenacapavir IV infusion 1.0 mg/kg alone, 0.0830 hrs, individual animals): 485 ng/mL and 603 ng/mL and 667 ng/mL
- Lenacapavir Concentrations in Rat Plasma When Dosed Alone (Lenacapavir IV infusion 1.0 mg/kg alone, 0.167 hrs, individual animals): 845 ng/mL and 682 ng/mL and 734 ng/mL
- Lenacapavir Concentrations in Rat Plasma When Dosed Alone (Lenacapavir IV infusion 1.0 mg/kg alone, 0.250 hrs, individual animals): 810 ng/mL and 801 ng/mL and 894 ng/mL
- Lenacapavir Concentrations in Rat Plasma When Dosed Alone (Lenacapavir IV infusion 1.0 mg/kg alone, 0.500 hrs, individual animals): 612 ng/mL and 580 ng/mL and 984 ng/mL
- Lenacapavir Concentrations in Rat Plasma When Dosed Alone (Lenacapavir IV infusion 1.0 mg/kg alone, 1.00 hrs, individual animals): 166 ng/mL and 222 ng/mL and 240 ng/mL
- Lenacapavir Concentrations in Rat Plasma When Dosed Alone (Lenacapavir IV infusion 1.0 mg/kg alone, 2.00 hrs, individual animals): 104 ng/mL and 149 ng/mL and 164 ng/mL
- Lenacapavir Concentrations in Rat Plasma When Dosed Alone (Lenacapavir IV infusion 1.0 mg/kg alone, 4.00 hrs, individual animals): 102 ng/mL and 157 ng/mL and 195 ng/mL
- Lenacapavir Concentrations in Rat Plasma When Dosed Alone (Lenacapavir IV infusion 1.0 mg/kg alone, 7.00 hrs, individual animals): 185 ng/mL and 84.6 ng/mL and 141 ng/mL and 142 ng/mL
- Lenacapavir Concentrations in Rat Plasma When Dosed Alone (Lenacapavir IV infusion 1.0 mg/kg alone, 12.0 hrs, individual animals): 79.4 ng/mL and 106 ng/mL and 139 ng/mL
- Lenacapavir Concentrations in Rat Plasma When Dosed Alone (Lenacapavir IV infusion 1.0 mg/kg alone, 24.0 hrs, individual animals): 123 ng/mL and 141 ng/mL and 139 ng/mL
- Lenacapavir Concentrations in Rat Plasma When Dosed Alone (Lenacapavir IV infusion 1.0 mg/kg alone, 72.0 hrs, individual animals): 51.3 ng/mL and 59.7 ng/mL and 57.2 ng/mL and 110 ng/mL
- Lenacapavir Concentrations in Rat Plasma When Dosed with Prodrug formula 4-A (0.0830 hrs, individual animals): 460 ng/mL and 391 ng/mL and 314 ng/mL
- Lenacapavir Concentrations in Rat Plasma When Dosed with Prodrug formula 4-A (0.167 hrs, individual animals): 479 ng/mL and 589 ng/mL and 415 ng/mL
- Lenacapavir Concentrations in Rat Plasma When Dosed with Prodrug formula 4-A (0.250 hrs, individual animals): 623 ng/mL and 664 ng/mL and 375 ng/mL
- Lenacapavir Concentrations in Rat Plasma When Dosed with Prodrug formula 4-A (0.500 hrs, individual animals): 643 ng/mL and 714 ng/mL and 448 ng/mL
- Lenacapavir Concentrations in Rat Plasma When Dosed with Prodrug formula 4-A (1.00 hrs, individual animals): 170 ng/mL (2×) and 107 ng/mL
- Lenacapavir Concentrations in Rat Plasma When Dosed with Prodrug formula 4-A (2.00 hrs, individual animals): 135 ng/mL and 105 ng/mL and 94.7 ng/mL
- Lenacapavir Concentrations in Rat Plasma When Dosed with Prodrug formula 4-A (4.00 hrs, individual animals): 93.1 ng/mL and 101 ng/mL and 80.9 ng/mL
- Lenacapavir Concentrations in Rat Plasma When Dosed with Prodrug formula 4-A (7.00 hrs, individual animals): 140 ng/mL and 101 ng/mL and 72.3 ng/mL and 58.8 ng/mL
- Lenacapavir Concentrations in Rat Plasma When Dosed with Prodrug formula 4-A (12.0 hrs, individual animals): 139 ng/mL and 137 ng/mL and 158 ng/mL and 78.6 ng/mL
- Lenacapavir Concentrations in Rat Plasma When Dosed with Prodrug formula 4-A (24.0 hrs, individual animals): 129 ng/mL and 164 ng/mL and 176 ng/mL and 62.5 ng/mL
- Lenacapavir Concentrations in Rat Plasma When Dosed with Prodrug formula 4-A (72.0 hrs, individual animals): 40.1 ng/mL and 97.8 ng/mL and 97.2 ng/mL and 98.0 ng/mL
- concentration at 48 h (male, Sprague-Dawley, rat, in vivo, 1 mg/kg, Lenacapavir Concentrations in Rat Plasma When Dosed Alone): 0.107 µg/mL
- concentration at 0.083 h (male, Sprague-Dawley, rat, in vivo, 1 mg/kg, Lenacapavir Concentrations in Rat Plasma When Dosed Alone, Lenacapavir IV infusion 1.0 mg/kg alone, 0.0830 hrs, Mean): 0.612 µg/mL
- concentration at 0.083 h (male, Sprague-Dawley, rat, in vivo, 1 mg/kg, Lenacapavir Concentrations in Rat Plasma When Dosed Alone, Lenacapavir IV infusion 1.0 mg/kg alone, 0.0830 hrs, individual animals): 0.692 µg/mL
- concentration at 0.167 h (male, Sprague-Dawley, rat, in vivo, 1 mg/kg, Lenacapavir Concentrations in Rat Plasma When Dosed Alone, Lenacapavir IV infusion 1.0 mg/kg alone, 0.167 hrs, Mean): 0.739 µg/mL
- concentration at 0.167 h (male, Sprague-Dawley, rat, in vivo, 1 mg/kg, Lenacapavir Concentrations in Rat Plasma When Dosed Alone, Lenacapavir IV infusion 1.0 mg/kg alone, 0.167 hrs, individual animals): 0.694 µg/mL
- concentration at 0.25 h (male, Sprague-Dawley, rat, in vivo, 1 mg/kg, Lenacapavir Concentrations in Rat Plasma When Dosed Alone, Lenacapavir IV infusion 1.0 mg/kg alone, 0.250 hrs, Mean): 0.825 µg/mL
